Assay results reported in ChEMBL document CHEMBL1201862, “PubChem BioAssay data set” (2004).
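Growth conditions: 96-well plates. Treatment: test compound, 48 hours, 5 concentrations. Analysis: linear interpolation between bracketing concentrations; unreached endpoints set to highest concentration. The concentration for 50% growth inhibition is given as GI50.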 Activity calls are given as the source filed them. Cut-off read from the data, not from the text of the source: active = GI50 up to about 1.1 µM and inactive = higher.

Key:
Experiment in all cases: NCI-60 cell line screen, 48 h
786-0 = system: 786-0
A498 = system: A498
A549 = system: A549
ACHN = system: ACHN
BT-549 = system: BT-549
CAKI-1 = system: CAKI-1
CCRF-CEM = system: CCRF-CEM
COLO 205 = system: COLO 205
DU-145 = system: DU-145
EKVX = system: EKVX
HCT-116 = system: HCT-116
HCT-15 = system: HCT-15
HOP-62 = system: HOP-62
HOP-92 = system: HOP-92
HT-29 = system: HT-29
Hs-578T = system: Hs-578T
IGROV-1 = system: IGROV-1
K562 = system: K562
KM12 = system: KM12
LOX IMVI = system: LOX IMVI
M14 = system: M14
MCF7 = system: MCF7
MDA-MB-231 = system: MDA-MB-231
MDA-MB-435 = system: MDA-MB-435
MDA-N = system: MDA-N
MOLT-4 = system: MOLT-4
Malme-3M = system: Malme-3M
NCI-H226 = system: NCI-H226
NCI-H23 = system: NCI-H23
NCI-H460 = system: NCI-H460
NCI-H522 = system: NCI-H522
NCI/ADR-RES = system: NCI/ADR-RES
OVCAR-3 = system: OVCAR-3
OVCAR-4 = system: OVCAR-4
OVCAR-5 = system: OVCAR-5
OVCAR-8 = system: OVCAR-8
PC-3 = system: PC-3
RPMI-8226 = system: RPMI-8226
RXF 393 = system: RXF 393
SF-268 = system: SF-268
SF-295 = system: SF-295
SK-MEL-28 = system: SK-MEL-28
SK-MEL-2 = system: SK-MEL-2
SK-MEL-5 = system: SK-MEL-5
SK-OV-3 = system: SK-OV-3
SN12C = system: SN12C
SNB-19 = system: SNB-19
SNB-75 = system: SNB-75
SR = system: SR
SW-620 = system: SW-620
T47D = system: T47D
TK-10 = system: TK-10
U-251 = system: U-251
UACC-257 = system: UACC-257
UACC-62 = system: UACC-62
UO-31 = system: UO-31
HCC 2998 = system: HCC 2998
HL-60 = system: HL-60
SF-539 = system: SF-539

CN(C(=O)[C@H](NC(=O)OCc1ccccc1)c1ccccc1)C1CCCCC1N1CCCC1 (some centres undefined)
GI50 (786-0): 95.1 µM (inactive)
GI50 (A498): 89.9 µM (inactive)
GI50 (A549): > 100 µM (inactive)
GI50 (ACHN): > 100 µM (inactive)
GI50 (BT-549): > 100 µM (inactive)
GI50 (CAKI-1): > 100 µM (inactive)
GI50 (CCRF-CEM): 38.8 µM (inactive)
GI50 (COLO 205): 87.9 µM (inactive)
GI50 (DU-145): > 100 µM (inactive)
GI50 (EKVX): > 100 µM (inactive)
GI50 (HCT-116): 69.2 µM (inactive)
GI50 (HCT-15): > 100 µM
GI50 (HOP-62): > 100 µM (inactive)
GI50 (HOP-92): 31.5 µM (inactive)
GI50 (HT-29): 38.1 µM (inactive)
GI50 (Hs-578T): 19.6 µM (inactive)
GI50 (IGROV-1): 70.3 µM (inactive)
GI50 (K562): 29 µM (inactive)
GI50 (KM12): > 100 µM (inactive)
GI50 (LOX IMVI): 77.6 µM (inactive)
GI50 (M14): 23.4 µM (inactive)
GI50 (MCF7): 98.2 µM (inactive)
GI50 (MDA-MB-231): > 100 µM (inactive)
GI50 (MDA-MB-435): 70.8 µM (inactive)
GI50 (MDA-N): > 100 µM (inactive)
GI50 (MOLT-4): 23.7 µM (inactive)
GI50 (Malme-3M): 48.4 µM (inactive)
GI50 (NCI-H226): 0.55 µM (active)
GI50 (NCI-H23): > 100 µM (inactive)
GI50 (NCI-H460): 40.6 µM (inactive)
GI50 (NCI-H522): 43.9 µM (inactive)
GI50 (NCI/ADR-RES): > 100 µM (inactive)
GI50 (OVCAR-3): > 100 µM (inactive)
GI50 (OVCAR-4): 51.4 µM (inactive)
GI50 (OVCAR-5): > 100 µM (inactive)
GI50 (OVCAR-8): > 100 µM (inactive)
GI50 (PC-3): 69.7 µM (inactive)
GI50 (RPMI-8226): 36.3 µM (inactive)
GI50 (RXF 393): 87.3 µM (inactive)
GI50 (SF-268): 62.4 µM (inactive)
GI50 (SF-295): > 100 µM (inactive)
GI50 (SK-MEL-28): > 100 µM (inactive)
GI50 (SK-MEL-2): > 100 µM (inactive)
GI50 (SK-MEL-5): 16 µM (inactive)
GI50 (SK-OV-3): > 100 µM (inactive)
GI50 (SN12C): > 100 µM (inactive)
GI50 (SNB-19): > 100 µM (inactive)
GI50 (SNB-75): 97.3 µM (inactive)
GI50 (SR): 20.7 µM (inactive)
GI50 (SW-620): > 100 µM (inactive)
GI50 (T47D): > 100 µM (inactive)
GI50 (TK-10): 74.6 µM (inactive)
GI50 (U-251): > 100 µM (inactive)
GI50 (UACC-257): 26.1 µM (inactive)
GI50 (UACC-62): > 100 µM (inactive)
GI50 (UO-31): 48.5 µM (inactive)

Sc1ccc2ccccc2c1CNCc1ccccc1
GI50 (786-0): 9.75 µM (inactive)
GI50 (A498): 16.3 µM (inactive)
GI50 (A549): 25.3 µM (inactive)
GI50 (ACHN): 19 µM (inactive)
GI50 (BT-549): 15.8 µM (inactive)
GI50 (CAKI-1): 15.7 µM (inactive)
GI50 (CCRF-CEM): 3.72 µM (inactive)
GI50 (COLO 205): 13.7 µM (inactive)
GI50 (DU-145): 18.4 µM (inactive)
GI50 (EKVX): 22.9 µM (inactive)
GI50 (HCC 2998): > 100 µM (inactive)
GI50 (HCT-116): 13.8 µM (inactive)
GI50 (HCT-15): 16.4 µM
GI50 (HL-60): 5.77 µM (inactive)
GI50 (HOP-62): 15.4 µM (inactive)
GI50 (HT-29): 27.9 µM (inactive)
GI50 (Hs-578T): 22.7 µM (inactive)
GI50 (IGROV-1): 2.65 µM (inactive)
GI50 (K562): 13.3 µM (inactive)
GI50 (KM12): 13.9 µM (inactive)
GI50 (LOX IMVI): 5.78 µM (inactive)
GI50 (M14): 10 µM (inactive)
GI50 (MCF7): 13.7 µM (inactive)
GI50 (MDA-MB-231): 18.5 µM (inactive)
GI50 (MDA-MB-435): 12.3 µM (inactive)
GI50 (MDA-N): 13.2 µM (inactive)
GI50 (MOLT-4): 2.25 µM (inactive)
GI50 (Malme-3M): 21.8 µM (inactive)
GI50 (NCI-H226): 3.08 µM (inactive)
GI50 (NCI-H23): 14.5 µM (inactive)
GI50 (NCI-H460): 24.1 µM (inactive)
GI50 (NCI-H522): 4.93 µM (inactive)
GI50 (NCI/ADR-RES): 25.4 µM (inactive)
GI50 (OVCAR-3): 13.6 µM (inactive)
GI50 (OVCAR-4): 10.9 µM (inactive)
GI50 (OVCAR-5): 13.1 µM (inactive)
GI50 (OVCAR-8): 20.5 µM (inactive)
GI50 (PC-3): 18.8 µM (inactive)
GI50 (RPMI-8226): 12.5 µM (inactive)
GI50 (RXF 393): 11.8 µM (inactive)
GI50 (SF-268): 8.47 µM (inactive)
GI50 (SF-295): 19.4 µM (inactive)
GI50 (SF-539): 10 µM (inactive)
GI50 (SK-MEL-28): 21.5 µM (inactive)
GI50 (SK-MEL-2): 19.7 µM (inactive)
GI50 (SK-MEL-5): 9.46 µM (inactive)
GI50 (SK-OV-3): 11.8 µM (inactive)
GI50 (SN12C): 6.24 µM (inactive)
GI50 (SNB-19): 24.3 µM (inactive)
GI50 (SNB-75): 15.7 µM (inactive)
GI50 (SR): 3.44 µM (inactive)
GI50 (SW-620): 9.12 µM (inactive)
GI50 (T47D): 19.3 µM (inactive)
GI50 (TK-10): 30.8 µM (inactive)
GI50 (U-251): 12.8 µM (inactive)
GI50 (UACC-257): 26.6 µM (inactive)
GI50 (UACC-62): 14.3 µM (inactive)
GI50 (UO-31): 11.7 µM (inactive)
